“And” between values parts separate entries of the source, which are not always exact repeats. Identical values can stand only once.
Legend:
Mus musculus [1] = experiment: Maximally tolerated dose was measured after ip administration of compound, 24 hr after tumor implantation.; format: functional
B16 [2] = experiment: In vitro cytotoxicity against murine B16 melanoma cells; format: functional, cell-based, Mus musculus
P388 [3] = experiment: Maximum increase in life span was determined against P388 leukemia at 4-5 doses of compound; format: functional, Mus musculus
M5076 = experiment: Percent increase in life span after transplant tumor in M5076 reticulum cells; format: functional, Mus musculus
ADJ/PC6 = experiment: Tumor growth inhibition activity after subcutaneous transplanted tumor in ADJ-PC6 plasmacytoma cells; format: functional, Mus musculus
B16 [4] = experiment: Percent increase in life span after transplant tumor in B16 melanoma cells; format: functional, Mus musculus
P388 [5] = experiment: Percent increase in life span after transplant tumor in p388 leukemia cells; format: functional, Mus musculus
[6] = Percent increase in life span after transplant tumor in Madison lung carcinoma cells; format: functional, Mus musculus, M109
[7] = Tumor growth inhibition activity after subcutaneous transplanted tumor in mammary carcinoma 16/C cells; format: functional, Mus musculus
[8] = test system: Lewis lung carcinoma cell line; experiment: Percent increase in life span after transplant tumor in Lewis lung carcinoma cells; format: functional, Mus musculus
L1210 = experiment: Percent increase in life span after transplant tumor in L1210 leukemia; format: functional, Mus musculus
Mus musculus [9] = species on record: Mus musculus

Row | Compound | MTD (Mus musculus [1]) | IC50 (B16 [2]; Mus musculus, B16) | ILSmax (P388 [3]) | other results
1 | CCP(CC)CCP(CC)CC | 310 µM/kg | > 100 µM | – | –
2 | c1ccc(P(CCCCP(c2ccccc2)c2ccccc2)c2ccccc2)cc1 | 66 µM/kg | > 100 µM | 45 | –
3 | c1ccc(SCCSc2ccccc2)cc1 | 1000 µM/kg | > 100 µM | – | –
4 | Cc1cccc(P(CCP(c2cccc(C)c2)c2cccc(C)c2)c2cccc(C)c2)c1 | 70 µM/kg | > 100 µM | – | –
5 | c1ccc(P(CCP(c2ccccc2)c2ccccc2)CCP(c2ccccc2)c2ccccc2)cc1 | 60 µM/kg | > 100 µM | 80 | –
6 | FC(F)(F)c1ccc(P(CCP(c2ccc(C(F)(F)F)cc2)c2ccc(C(F)(F)F)cc2)c2ccc(C(F)(F)F)cc2)cc1 | 48 µM/kg | – | 38 | –
7 | c1ccc(P(CCCP(c2ccccc2)c2ccccc2)c2ccccc2)cc1 | 78 µM/kg | 72 µM | 75 | –
8 | COc1ccc(P(CCP(c2ccc(OC)cc2)c2ccc(OC)cc2)c2ccc(OC)cc2)cc1 | 62 µM/kg | 66 µM | – | –
9 | c1coc(P(CCP(c2ccco2)c2ccco2)c2ccco2)c1 | 180 µM/kg | > 100 µM | 60 | –
10 | CN(C)c1ccc(P(CCP(c2ccc(N(C)C)cc2)c2ccc(N(C)C)cc2)c2ccc(N(C)C)cc2)cc1 | >220 µM/kg | – | – | –
11 | COc1ccccc1P(CCP(c1ccccc1OC)c1ccccc1OC)c1ccccc1OC | 120 µM/kg | – | – | –
12 | C(=C/P(c1ccccc1)c1ccccc1)/P(c1ccccc1)c1ccccc1 | 61 µM/kg | 25 µM | 60 | –
13 | c1ccc(P(c2ccccc2)c2ccc(P(c3ccccc3)c3ccccc3)cc2)cc1 | >600 µM/kg | > 100 µM | – | –
14 | C1CCC(P(CCP(C2CCCCC2)C2CCCCC2)C2CCCCC2)CC1 | 76 µM/kg | > 100 µM | 68 | –
15 | c1cc(P(CCP(c2ccncc2)c2ccncc2)c2ccncc2)ccn1 | 80 µM/kg | – | 35 | –
16 | c1ccc(P(c2ccccc2)P(c2ccccc2)c2ccccc2)cc1 | 320 µM/kg | > 100 µM | – | –
17 | CSc1ccccc1P(CCP(c1ccccc1SC)c1ccccc1SC)c1ccccc1SC | 110 µM/kg | – | 51 | –
18 | CC(C(C)P(c1ccccc1)c1ccccc1)P(c1ccccc1)c1ccccc1 (stereo not given) | 113 µM/kg | 50 µM | 73 | –
19 | CSc1ccc(P(CCP(c2ccc(SC)cc2)c2ccc(SC)cc2)c2ccc(SC)cc2)cc1 | 55 µM/kg | – | 58 | –

Row | Compound | MTD (Mus musculus [1]) | IC50 (B16 [2]; Mus musculus, B16) | ILSmax (P388 [3]) | other results
20 | O=[N+]([O-])[O][Ag].O=[N+]([O-])[O][Ag].c1ccc(P(CCP(c2ccccc2)c2ccccc2)c2ccccc2)cc1 | 8 µM/kg | – | – | –
21 | c1ccc(P(CCCCCCP(c2ccccc2)c2ccccc2)c2ccccc2)cc1 | 280 µM/kg | > 100 µM | – | –
22 | CC(CP(c1ccccc1)c1ccccc1)P(c1ccccc1)c1ccccc1 (stereo not given) | 78 µM/kg | 50 µM | 86 | –
23 | C(#CP(c1ccccc1)c1ccccc1)P(c1ccccc1)c1ccccc1 | >300 µM/kg | 23 µM | – | –
24 | c1ccc(P(CCP(c2ccccc2)c2ccccc2)c2ccccc2)cc1 | 60 µM/kg and 50 µM/kg | 50 µM | 80 and 107 | ILS (M5076): 74%; TGI (ADJ/PC6): 94%; ILS (B16 [4]): 38%; ILS (P388 [5]): 107%; ILS [6]: 50%; TGI [7]: 88%; ILS [8]: 69%; ILS (L1210): 56%; IC50 (B16 [2]; b16): 60 µM
25 | Fc1ccccc1P(CCP(c1ccccc1F)c1ccccc1F)c1ccccc1F | 68 µM/kg | > 100 µM | 45 | –
26 | c1ccc(P(CC[As](c2ccccc2)c2ccccc2)c2ccccc2)cc1 | 89 µM/kg | 55 µM | – | –
27 | Fc1ccc(P(CCP(c2ccc(F)cc2)c2ccc(F)cc2)c2ccc(F)cc2)cc1 | 17 µM/kg | > 100 µM | 60 | –
28 | c1ccc(CP(CCP(Cc2ccccc2)Cc2ccccc2)Cc2ccccc2)cc1 | 44 µM/kg | > 100 µM | – | –
29 | CCP(CCP(CC)c1ccccc1)c1ccccc1 (stereo not given) | >300 µM/kg | > 100 µM | – | –
30 | c1ccc(P(CCP(c2ccccn2)c2ccccn2)c2ccccn2)nc1 | 60 µM/kg | > 100 µM | – | –
31 | c1ccc(P(CCP(CCP(c2ccccc2)c2ccccc2)CCP(c2ccccc2)c2ccccc2)c2ccccc2)cc1 | 95 µM/kg | 58 µM | 35 | –
32 | c1csc(P(CCP(c2cccs2)c2cccs2)c2cccs2)c1 | 38 µM/kg | > 100 µM | 60 | –
33 | 4,4'-Bis-diphenylphosphanyl-biphenyl; compound with GENERIC INORGANIC NEUTRAL COMPONENT | – | – | – | MTD (Mus musculus [9]): 35 µM/kg and 24 µM/kg and 30 µM/kg
34 | Cc1ccc(P(CCP(c2ccc(C)cc2)c2ccc(C)cc2)c2ccc(C)cc2)cc1 | 26 µM/kg | > 100 µM | – | –
35 | c1ccc([As](CC[As](c2ccccc2)c2ccccc2)c2ccccc2)cc1 | 82 µM/kg | > 100 µM | – | –
36 | C(=C\P(c1ccccc1)c1ccccc1)/P(c1ccccc1)c1ccccc1 | 320 µM/kg | 40 µM | – | –
37 | c1ccc(P(CCCCCP(c2ccccc2)c2ccccc2)c2ccccc2)cc1 | 18 µM/kg | > 100 µM | 50 | –
38 | O=P(CCP(=O)(c1ccccc1)c1ccccc1)(c1ccccc1)c1ccccc1 | 300 µM/kg | > 100 µM | – | –
